Assay results as given in ChEMBL document CHEMBL2073946, “Role of organic anion transporter OATP1B1 (OATP-C) in hepatic uptake of irinotecan and its active metabolite, 7-ethyl-10-hydroxycamptothecin: in vitro evidence and effect of single nucleotide polymorphisms” (Drug Metab Dispos, 2005).

Experiments:
Format in all cases: functional, cell-based
[1] = biological target: T1, Solute carrier organic anion transporter family member 1B1 (Homo sapiens, UniProt Q9Y6L6); test: TP_TRANSPORTER: uptake in OATP1B1-expressing HEK293 cell
T1 sequence (Q9Y6L6 whole entry): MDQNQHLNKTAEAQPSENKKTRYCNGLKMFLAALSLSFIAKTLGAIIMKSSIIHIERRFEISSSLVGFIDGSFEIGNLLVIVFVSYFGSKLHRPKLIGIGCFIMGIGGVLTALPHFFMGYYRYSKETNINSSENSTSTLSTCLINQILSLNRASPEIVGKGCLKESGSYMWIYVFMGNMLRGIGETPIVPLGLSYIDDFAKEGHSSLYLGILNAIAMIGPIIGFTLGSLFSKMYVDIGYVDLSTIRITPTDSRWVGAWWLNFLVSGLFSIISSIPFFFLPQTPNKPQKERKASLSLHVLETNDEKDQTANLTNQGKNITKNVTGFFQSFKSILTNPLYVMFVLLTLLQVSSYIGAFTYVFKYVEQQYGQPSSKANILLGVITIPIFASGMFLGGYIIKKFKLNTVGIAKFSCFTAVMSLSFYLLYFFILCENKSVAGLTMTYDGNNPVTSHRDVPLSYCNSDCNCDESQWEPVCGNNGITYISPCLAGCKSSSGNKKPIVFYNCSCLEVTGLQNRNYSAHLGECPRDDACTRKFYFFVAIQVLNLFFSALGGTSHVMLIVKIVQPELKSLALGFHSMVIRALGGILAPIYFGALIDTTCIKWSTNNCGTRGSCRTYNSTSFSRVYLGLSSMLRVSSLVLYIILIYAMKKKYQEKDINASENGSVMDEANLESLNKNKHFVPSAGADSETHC

[2] = biological target: T1, Solute carrier organic anion transporter family member 1B1; test: TP_TRANSPORTER: inhibition of E1S uptake (SN38 G 10 u M) in OATP1B1-expressing HEK293 cells; conditions: hek293, 10 µM
[3] = biological target: T2, Solute carrier organic anion transporter family member 1B3 (Homo sapiens, UniProt Q9NPD5); test: TP_TRANSPORTER: uptake of SN-38 at a concentration of 0.09uL/oocyte in Xenopus laevis oocytes
T2 sequence (Q9NPD5 whole entry): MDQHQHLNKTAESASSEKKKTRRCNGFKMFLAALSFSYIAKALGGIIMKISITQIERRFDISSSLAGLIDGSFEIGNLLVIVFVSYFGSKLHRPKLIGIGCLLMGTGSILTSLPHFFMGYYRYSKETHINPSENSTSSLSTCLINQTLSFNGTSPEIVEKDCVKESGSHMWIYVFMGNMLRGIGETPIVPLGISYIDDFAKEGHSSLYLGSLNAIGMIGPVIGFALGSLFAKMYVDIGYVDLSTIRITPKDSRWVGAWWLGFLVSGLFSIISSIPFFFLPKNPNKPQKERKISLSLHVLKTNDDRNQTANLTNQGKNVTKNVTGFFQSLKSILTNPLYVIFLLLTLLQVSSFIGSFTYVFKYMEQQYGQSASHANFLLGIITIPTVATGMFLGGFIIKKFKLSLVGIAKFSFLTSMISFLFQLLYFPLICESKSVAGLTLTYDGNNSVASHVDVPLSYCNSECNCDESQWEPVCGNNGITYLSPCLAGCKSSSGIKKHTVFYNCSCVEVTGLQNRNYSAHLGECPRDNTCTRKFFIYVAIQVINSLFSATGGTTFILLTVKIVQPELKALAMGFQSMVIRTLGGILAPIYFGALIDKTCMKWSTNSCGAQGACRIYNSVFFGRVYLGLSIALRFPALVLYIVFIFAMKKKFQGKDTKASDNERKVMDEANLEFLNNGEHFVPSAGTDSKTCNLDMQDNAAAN

[4] = biological target: T1, Solute carrier organic anion transporter family member 1B1; test: TP_TRANSPORTER: uptake of SN-38 at a concentration of 0.16uL/oocyte in Xenopus laevis oocytes
[5] = biological target: T1, Solute carrier organic anion transporter family member 1B1; test: TP_TRANSPORTER: uptake in OATP1B1-expressing HEK293 cells
[6] = biological target: T3, Solute carrier organic anion transporter family member 2B1 (Homo sapiens, UniProt O94956); test: TP_TRANSPORTER: uptake of SN-38 at a concentration of 0.10uL/oocyte in Xenopus laevis oocytes
T3 sequence (O94956 whole entry): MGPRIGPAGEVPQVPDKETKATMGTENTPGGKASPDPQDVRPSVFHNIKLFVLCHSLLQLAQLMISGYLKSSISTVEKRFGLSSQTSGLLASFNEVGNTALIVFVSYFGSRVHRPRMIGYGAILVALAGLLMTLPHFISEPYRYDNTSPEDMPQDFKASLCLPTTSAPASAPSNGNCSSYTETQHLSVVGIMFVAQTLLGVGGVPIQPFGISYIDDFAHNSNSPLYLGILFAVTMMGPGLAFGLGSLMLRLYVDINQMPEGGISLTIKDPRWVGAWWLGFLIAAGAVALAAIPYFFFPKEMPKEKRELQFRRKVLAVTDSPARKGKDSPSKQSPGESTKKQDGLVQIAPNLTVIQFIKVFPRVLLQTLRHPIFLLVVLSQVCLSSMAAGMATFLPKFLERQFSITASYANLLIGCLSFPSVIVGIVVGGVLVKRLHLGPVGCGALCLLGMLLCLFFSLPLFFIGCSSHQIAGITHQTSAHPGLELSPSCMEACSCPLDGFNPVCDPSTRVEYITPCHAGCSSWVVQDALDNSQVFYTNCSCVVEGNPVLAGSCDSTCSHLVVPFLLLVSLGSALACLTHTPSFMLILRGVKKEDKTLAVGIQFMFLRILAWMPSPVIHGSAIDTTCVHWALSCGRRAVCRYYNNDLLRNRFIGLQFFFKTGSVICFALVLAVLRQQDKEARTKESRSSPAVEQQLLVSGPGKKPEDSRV

[7] = biological target: T1, Solute carrier organic anion transporter family member 1B1; test: TP_TRANSPORTER: inhibition of E1S uptake (SN38 10 u M) in OATP1B1-expressing HEK293 cells; set-up: scale not given: the % may be the effect or the level left; conditions: hek293, 10 µM

Activity [1]	Activity [3]	Activity [4]	Activity [5]	Activity [6]	Activity [7] [%]	Compound	Activity [2]
is not a substrate [-]						CCc1c2c(nc3ccc(OC(=O)N4CCC(N5CCCCC5)CC4)cc13)-c1cc3c(c(=O)n1C2)COC(=O)[C@]3(O)CC [IRINOTECAN]	
substrate [+]	is not a substrate [-]	substrate [+]	substrate []	is not a substrate [-]	50	CCc1c2c(nc3ccc(O)cc13)-c1cc3c(c(=O)n1C2)COC(=O)[C@]3(O)CC [7-ETHYL-10-HYDROXYCAMPTOTHECIN]	

Compound	Activity [1]	Activity [3]	Activity [4]	Activity [5]	Activity [6]	Activity [7] [%]	Activity [2]
CCc1c2c(nc3ccc(OC[C@@H]4O[C@H](C(=O)O)[C@@H](O)[C@H](O)[C@H]4O)cc13)-c1cc3c(c(=O)n1C2)COC(=O)[C@]3(O)CC	is not a substrate [-]						is not an inhibitor [-]
